# Experimental data from ChEMBL document CHEMBL4270590, “Azulene-based compounds for targeting orexin receptors” (Eur J Med Chem, 2018).
# The source made the active and inactive calls. The rule behind the calls is not given here.
# How the values were obtained:
# [1] = tested on: CHO-K1; assay: Effect on ATP-induced intracellular calcium accumulation in CHOK1 cells expressing human OXR at 10 uM incubated for 30 mins and measured for 150 secs by calcium-4 dye based FLIPR assay; format: functional, cell-based; details: Cricetulus griseus
# [2] = target: T1, Orexin/Hypocretin receptor type 1 (Homo sapiens) (UniProt O43613); assay: Agonist activity at human OX1 receptor expressed in CHOK1 cells assessed as increase in calcium accumulation at 10 uM incubated for 30 mins measured for 150 secs by calcium-4 dye based FLIPR assay relative to orexin-A; format: functional, cell-based
# T1 sequence (whole entry): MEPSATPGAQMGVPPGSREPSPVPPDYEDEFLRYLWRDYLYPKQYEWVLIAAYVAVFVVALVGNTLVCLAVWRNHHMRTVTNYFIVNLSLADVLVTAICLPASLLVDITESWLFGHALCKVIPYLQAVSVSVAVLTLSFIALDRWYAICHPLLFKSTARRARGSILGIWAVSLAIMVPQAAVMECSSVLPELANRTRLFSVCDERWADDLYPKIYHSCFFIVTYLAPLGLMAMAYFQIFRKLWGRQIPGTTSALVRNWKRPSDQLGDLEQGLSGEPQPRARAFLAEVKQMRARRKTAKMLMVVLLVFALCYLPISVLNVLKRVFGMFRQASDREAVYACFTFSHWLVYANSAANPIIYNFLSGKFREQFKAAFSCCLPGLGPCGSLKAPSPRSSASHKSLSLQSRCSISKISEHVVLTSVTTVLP
# [3] = Colloidal aggregating behavior of the compound at 1 to 30 uM by nephelometric method; format: physicochemical
# [4] = target: T1, Orexin/Hypocretin receptor type 1 (Homo sapiens); assay: Allosteric agonist activity at human OX1 receptor expressed in CHOK1 cells assessed as potentiation of orexin-A induced calcium accumulation at 10 uM preincubated for 30 mins followed by orexin-A addition and measured for 150 secs by calcium-4 dye based FLIPR assay relative to control; format: functional, cell-based
# [5] = target: T2, Orexin/Hypocretin receptor type 1 (Homo sapiens, UniProt O43613); assay: Antagonist activity at human OX1 receptor expressed in CHOK1 cells assessed as inhibition of orexin-A-induced calcium accumulation preincubated for 30 mins followed by orexin-A addition measured for 150 secs by calcium-4 dye based FLIPR assay; format: functional, cell-based; details: read-out: Ki(app)
# T2 sequence (O43613 whole entry): T1 sequence (whole entry)
# [6] = target: T3, Orexin receptor type 2 (Homo sapiens) (UniProt O43614); assay: Allosteric agonist activity at human OX2 receptor expressed in CHOK1 cells assessed as potentiation of orexin-A induced calcium accumulation at 10 uM preincubated for 30 mins followed by orexin-A addition and measured for 150 secs by calcium-4 dye based FLIPR assay relative to control; format: functional, cell-based
# T3 sequence (whole entry): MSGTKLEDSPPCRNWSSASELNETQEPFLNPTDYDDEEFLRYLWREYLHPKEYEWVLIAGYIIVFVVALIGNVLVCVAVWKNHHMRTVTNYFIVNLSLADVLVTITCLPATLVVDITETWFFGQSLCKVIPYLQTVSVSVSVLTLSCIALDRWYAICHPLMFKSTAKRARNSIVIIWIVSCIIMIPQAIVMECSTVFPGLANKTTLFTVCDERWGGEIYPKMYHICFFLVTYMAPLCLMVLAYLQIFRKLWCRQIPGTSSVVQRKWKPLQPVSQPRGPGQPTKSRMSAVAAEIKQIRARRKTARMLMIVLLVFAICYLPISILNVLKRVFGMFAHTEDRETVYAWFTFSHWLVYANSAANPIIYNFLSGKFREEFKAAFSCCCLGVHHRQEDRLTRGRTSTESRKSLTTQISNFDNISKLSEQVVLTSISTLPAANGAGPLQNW
# [7] = target: T3, Orexin receptor type 2 (Homo sapiens); assay: Agonist activity at human OX2 receptor expressed in CHOK1 cells assessed as increase in calcium accumulation at 10 uM incubated for 30 mins measured for 150 secs by calcium-4 dye based FLIPR assay relative to orexin-A; format: functional, cell-based
# [8] = target: T4, Orexin receptor type 2 (Homo sapiens, UniProt O43614); assay: Antagonist activity at human OX2 receptor expressed in CHOK1 cells assessed as inhibition of orexin-A-induced calcium accumulation preincubated for 30 mins followed by orexin-A addition measured for 150 secs by calcium-4 dye based FLIPR assay; format: functional, cell-based; details: read-out: Ki(app)
# T4 sequence (O43614 whole entry): T3 sequence (whole entry)
# [9] = target: T3, Orexin receptor type 2 (Homo sapiens); assay: Displacement of [125I]-orexin-A from human OX2 receptor expressed in CHOK1 cells at 10 uM incubated for 10 mins and measured after 90 mins by liquid scintillation counting method relative to control; format: cell-based
# [10] = target: T1, Orexin/Hypocretin receptor type 1 (Homo sapiens); assay: Displacement of [125I]-orexin-A from human OX1 receptor expressed in CHOK1 cells at 10 uM incubated for 10 mins and measured after 90 mins by liquid scintillation counting method relative to control; format: cell-based
# [11] = Solubility of the compound in water; format: physicochemical; details: buffer
# [12] = target: T1, Orexin/Hypocretin receptor type 1 (Homo sapiens); assay: Allosteric agonist activity at human OX1 receptor expressed in CHOK1 cells assessed as potentiation of orexin-A induced calcium accumulation preincubated for 30 mins followed by orexin-A addition and measured for 150 secs by calcium-4 dye based FLIPR assay; format: functional, cell-based
# [13] = target: T3, Orexin receptor type 2 (Homo sapiens); assay: Allosteric agonist activity at human OX2 receptor expressed in CHOK1 cells assessed as potentiation of orexin-A induced calcium accumulation preincubated for 30 mins followed by orexin-A addition and measured for 150 secs by calcium-4 dye based FLIPR assay; format: functional, cell-based
# [14] = target: T3, Orexin receptor type 2 (Homo sapiens); assay: Agonist activity at human OX2 receptor expressed in CHOK1 cells assessed as increase in calcium accumulation at 10 uM incubated for 30 mins measured for 150 secs in presence of OX2R antagonist TCS-1102 by calcium-4 dye based FLIPR assay; format: functional, cell-based
# [15] = target: T1, Orexin/Hypocretin receptor type 1 (Homo sapiens); assay: Agonist activity at human OX1 receptor expressed in CHOK1 cells assessed as increase in calcium accumulation at 10 uM incubated for 30 mins measured for 150 secs in presence of OX1R antagonist SB-334867 by calcium-4 dye based FLIPR assay; format: functional, cell-based
Emax [2] [%],fold change (FC) [4],fold change (FC) [6],Emax [7] [%],inhibition [9] [%],inhibition [10] [%],Structure (SMILES),Activity [1],further results
1.09,1.53,0.9,2.96,1,–,O=C(O)c1ccc2ccc(C(=O)c3ccc(C(F)(F)F)cc3)c-2cc1,inactive,–
0.42,–,–,1.32,18,13.6,NC(=O)c1ccc2ccc(C(=O)c3ccccc3)c-2cc1,–,–
0.73,–,–,-2.13,24.3,8,COC(=O)CCC(=O)Oc1ccc2ccc(Cl)ccc1-2,–,–
1.75,–,–,3.47,44.1,37.8,O=Cc1ccc2ccc(C(=O)O)ccc1-2,–,–
1.62,–,–,-1.01,36,-4.5,CC(C)(C)OC(=O)NCC(=O)Oc1ccc2ccc(Cl)ccc1-2,–,–
-1.38,–,–,-3.18,25.6,19.9,O=C(O)c1cccc2c(C(=O)c3ccccc3)cc(C(=O)c3ccc(C(Cl)(Cl)Cl)cc3)c-2c1,–,–
0.69,–,–,-0.14,27,10.4,COC(=O)c1cccc2c(C(=O)c3ccccc3)cc(C(=O)c3ccc(C(F)(F)F)cc3)c-2c1,–,–
0.28,1.68,1.06,0.05,–,–,COC(=O)Cc1ccc2c(C(=O)c3ccccc3)cc(C(=O)c3ccccc3)c-2cc1,inactive,–
1.17,1.99,1.02,-0.25,-5.4,–,COC(=O)c1ccc2c(I)cc(C(=O)c3ccccc3)c-2cc1,inactive,solubility [11]: Insoluble; Activity [12]: Dose-dependent effect; Activity [13]: Dose-dependent effect
0.8,–,–,-0.27,1.8,8.5,COC(=O)c1ccc2c(C=O)cc(-c3ccccc3)c-2cc1,–,–
0.08,–,–,-3.3,34.3,0.1,O=C(Oc1ccc2ccc(Cl)ccc1-2)c1ccccc1,–,–
0.64,–,–,1.71,16.7,6.1,NC(=O)c1ccc2c(C=O)cc(-c3ccccc3)c-2cc1,–,–
0.46,–,–,-2.71,35.6,18.2,O=C(OCc1ccccc1)Oc1ccc2ccc(Cl)ccc1-2,–,–
-1.38,–,–,-3.18,26.4,18.3,O=C(O)c1cccc2c(C(=O)c3ccccc3)cc(C(=O)c3ccc(C(F)(F)F)cc3)c-2c1,–,–
-0.56,1.97,0.88,-1.51,–,–,COC(=O)c1ccc2c(C(=O)c3ccccc3)cc(C(=O)c3ccccc3)c-2cc1,inactive,solubility [11]: Insoluble; Activity [12]: Dose-dependent effect; Activity [13]: Dose-dependent effect
0.6,–,–,-2.65,32.3,-2.4,O=C(Oc1ccc2ccc(Cl)ccc1-2)c1cccnc1,–,–
3.06,–,–,2.26,37.2,25,COC(=O)c1ccc2ccc(C=O)c-2cc1,–,–
0.69,–,–,-0.14,27,10.4,COC(=O)c1cccc2c(C(=O)c3ccccc3)cc(C(=O)c3ccc(C(Cl)(Cl)Cl)cc3)c-2c1,–,–
6.13,1.59,0.86,12.4,–,–,COC(=O)c1ccc2ccc(C(=O)c3ccc(C(F)(F)F)cc3)c-2cc1,inactive,Activity [14]: inactive; Activity [15]: inactive
0.91,–,–,-2.7,33.2,9.8,O=C(Oc1ccc2ccc(Cl)ccc1-2)c1cccs1,–,–
2.35,–,–,0.4,39.9,23,COC(=O)c1cc(C=O)c2ccc(/C=C/c3cnc[nH]3)ccc1-2,–,–
4.15,1.64,0.79,4.92,28.9,7.2,COC(=O)c1ccc2ccc(C(=O)c3ccccc3)c-2cc1,inactive,–
1.49,–,–,-0.24,19.1,8.4,CCOc1ccc(-c2cc(C(=O)c3ccccc3)c3ccc(C(=O)OC)ccc2-3)cc1,–,–
5.01,1.86,0.97,11,-4.3,–,COC(=O)Cc1ccc2ccc(C(=O)c3ccccc3)c-2cc1,inactive,Activity [14]: inactive; Activity [15]: inactive
0.61,–,–,-0.44,31,38.3,Cc1ccc2ccc(C(=O)c3ccc(C(F)(F)F)cc3)c-2cc1,–,–
2.16,1.52,0.98,2.29,32.9,11,O=C(O)c1ccc2ccc(C(=O)c3ccccc3)c-2cc1,inactive,–
0.22,1.5,0.98,-1.06,11.2,8.6,O=C(O)Cc1ccc2ccc(C(=O)c3ccc(C(F)(F)F)cc3)c-2cc1,inactive,–
-1.39,1.42,0.75,-2.09,27,–,O=C(O)c1ccc2c(C(=O)c3ccccc3)cc(C(=O)c3ccccc3)c-2cc1,inactive,–
0.8,–,–,-0.21,21.5,16.2,O=Cc1cc(-c2ccccc2)c2ccc(C(=O)O)ccc1-2,–,–

Structure (SMILES),Emax [2] [%],fold change (FC) [4],fold change (FC) [6],Emax [7] [%],inhibition [9] [%],inhibition [10] [%],Activity [1],further results
CCOc1ccc(-c2cc(C(=O)c3ccccc3)c3ccc(C(=O)O)ccc2-3)cc1,-0.17,1.01,0.76,-0.99,–,–,inactive,Activity [3]: Not Active; Ki [5]: 3.1 to 7.5 µM; Ki [8]: 3.2 to 4.9 µM
COC(=O)c1cc(CN2CCOCC2)c2ccc(Cl)ccc1-2,0.42,–,–,-0.98,46.7,24.5,–,Activity [3]: Not Active; Ki [5]: 5.4 to 7.6 µM; Ki [8]: 4.3 to 8.6 µM
